Assay results reported in US9359297B2, “Spirolactam derivatives and uses of same” (H. Lundbeck A/S, priority 2009, dated 2016).

target: T1, human metabotropic glutamate receptor 5 (hmGluR5) (Homo sapiens, UniProt P41594); test: Calcium mobilization (FLIPR) assay for negative allosteric modulation, EC80 glutamate, hmGluR5 in HEK 293; format: cell-based; conditions: HEK293; hmGluR5, inhibition of EC80 glutamate response; read-out: FLIPR maximum inhibition
T1 construct: expressed in transfected cells
T1 sequence (P41594 21-1212): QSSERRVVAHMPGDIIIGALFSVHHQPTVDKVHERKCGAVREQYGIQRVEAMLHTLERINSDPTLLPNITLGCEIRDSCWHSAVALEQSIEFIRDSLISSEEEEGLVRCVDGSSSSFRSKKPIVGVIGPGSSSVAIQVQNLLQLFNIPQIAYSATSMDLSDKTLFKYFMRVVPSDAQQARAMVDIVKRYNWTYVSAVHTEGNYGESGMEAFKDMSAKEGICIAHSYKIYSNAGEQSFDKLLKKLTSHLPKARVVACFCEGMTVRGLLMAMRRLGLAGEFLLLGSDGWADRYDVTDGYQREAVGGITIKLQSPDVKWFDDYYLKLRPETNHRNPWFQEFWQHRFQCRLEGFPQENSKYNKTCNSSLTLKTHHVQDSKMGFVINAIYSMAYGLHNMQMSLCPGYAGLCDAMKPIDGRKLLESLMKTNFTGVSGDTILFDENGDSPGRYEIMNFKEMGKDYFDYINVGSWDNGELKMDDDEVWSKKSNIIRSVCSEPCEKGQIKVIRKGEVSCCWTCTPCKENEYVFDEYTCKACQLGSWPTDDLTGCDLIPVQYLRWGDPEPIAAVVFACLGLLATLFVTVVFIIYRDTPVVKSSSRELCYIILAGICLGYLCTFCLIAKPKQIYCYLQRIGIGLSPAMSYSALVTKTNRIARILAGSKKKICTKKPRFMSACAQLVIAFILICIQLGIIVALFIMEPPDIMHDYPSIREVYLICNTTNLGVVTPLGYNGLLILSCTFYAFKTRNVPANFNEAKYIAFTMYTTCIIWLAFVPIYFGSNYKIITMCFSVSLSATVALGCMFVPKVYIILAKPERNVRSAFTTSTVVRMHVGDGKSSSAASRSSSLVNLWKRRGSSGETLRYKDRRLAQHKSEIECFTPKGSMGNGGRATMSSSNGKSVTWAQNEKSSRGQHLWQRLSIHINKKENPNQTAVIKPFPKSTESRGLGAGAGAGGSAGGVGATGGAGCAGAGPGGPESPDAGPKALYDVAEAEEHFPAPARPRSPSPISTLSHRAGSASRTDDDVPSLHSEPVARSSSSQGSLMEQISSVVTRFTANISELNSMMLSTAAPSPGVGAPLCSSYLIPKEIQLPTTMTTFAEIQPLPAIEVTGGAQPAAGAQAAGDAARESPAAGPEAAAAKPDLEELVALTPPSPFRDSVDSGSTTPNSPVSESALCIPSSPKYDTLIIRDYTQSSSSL
Description: The cDNA for rat metabotropic glutamate receptor 5 (rmGluR5) and the cDNA for human metabotropic glutamate receptor 5 (hmGluR5) were generous gifts from S. Nakanishi (Kyoto University, Kyoto, Japan). The rmGluR5 or hmGluR5 was stably expressed in a HEK 293 cell line and grown in Dulbecco's Modified Eagle Medium (DMEM) (Invitrogen, Carlsbad, Calif.) with supplements (10% bovine calf serum, 4 mM glutamine, 100 units/mL penicillin, 100 μg/mL streptomycin and 0.75 mM G1418) at 37° C., 5% CO2. Twenty-four hours prior to assay, cells were seeded into 384-well black wall microtiter plates coated with poly-D-lysine. Just prior to assay, media was aspirated and cells dye-loaded (25 μL/well) with 3 μM Fluo-4/0.01% pluronic acid in assay buffer (Hank's Balanced Saline Solution (HBSS)): 150 mM NaCl, 5 mM KCl, 1 mM CaCl2, 1 mM MgCl2, plus 20 mM N-2-Hydroxyethylpiperazine-N′-2-ethanesulfonic acid (HEPES), pH 7.4, 0.1% bovine serum albumin (BSA) and 2.5 mM probenicid) for 1 hour in 5% CO2 at 37° C. After excess dye was discarded, cells were washed in assay buffer and layered with a final volume equal to 30 μL/well. Basal fluorescence is monitored in a fluorometric imaging plate reader (FLIPR) (Molecular Devices, Sunnyvale, Calif.) with an excitation wavelength of 488 nm and an emission range of 500 to 560 nm. Laser excitation energy was adjusted so that basal fluorescence readings were approximately 10,000 relative fluorescent units. Cells were stimulated with an EC20 or an EC80 concentration of glutamate in the presence of a compound to be tested, both diluted in assay buffer, and relative fluorescent units were measured at defined intervals (exposure=0.6 sec) over a 3 min period at room temperature. Basal readings derived from negative controls were subtracted from all samples. Maximum change in fluorescence was calculated for each well. Concentration-response curves derived from the maximum change in fluorescence were analyzed by nonlinear regression (Hill equation). A negative modulator can be identified from these concentration-response curves if a compound produces a concentration dependent inhibition of the EC80 glutamate response.

Structure (SMILES) | Emax [%]
O=C(N[C@H]1CCC[C@]2(CCN(c3cccc(F)c3)C2=O)C1)c1ccncc1 (relative stereo) [Example 77, cis-N-[2-(3-Fluoro-phenyl)-1-oxo-2-aza-spiro[4.5]dec-7-yl]-isonicotinamide] | 73 to 95
O=C(N[C@H]1CCC[C@]2(CCN(c3cc(F)cc(F)c3)C2=O)C1)c1ccncn1 (relative stereo) [Example 79, cis-Pyrimidine-4-carboxylic acid [2-(3,5-difluoro-phenyl)-1-oxo-2-azaspiro[4.5]dec-7-yl]-amide] | 73 to 95
Cc1cccc(C(=O)N[C@H]2CCC[C@]3(CCN(Cc4ccccc4)C3=O)C2)n1 (relative stereo) [Example 83, cis-6-methyl-pyridine-2-carboxylic acid (2-benzyl-1-oxo-2-aza-spiro[4.5]dec-7-yl)-amide] | 73 to 95
O=C(N[C@H]1CCC[C@]2(CCN(c3cc(-c4ccc(F)cc4)ncn3)C2=O)C1)c1cccc(F)c1 (relative stereo) [Example 88, cis-3-Fluoro-N-{2-[6-(4-fluoro-phenyl)-pyrimidin-4-yl]-1-oxo-2-aza-spiro[4.5]dec-7-yl}-benzamide] | 73 to 95
O=C(N[C@H]1CCC[C@]2(CCN(c3cccc(F)c3)C2=O)C1)c1cccc(CO)n1 (relative stereo) [Example 93, cis-6-Hydroxymethyl-pyridine-2-carboxylic acid [2-(3-fluoro-phenyl)-1-oxo-2-aza-spiro[4.5]dec-7-yl]-amide] | 73 to 95
O=C(N[C@H]1CCC[C@]2(CCN(c3cccc(F)c3)C2=O)C1)c1cccc(C(F)(F)F)n1 (relative stereo) [Example 94, cis-6-Trifluoromethyl-pyridine-2-carboxylic acid [2-(3-fluoro-phenyl)-1-oxo-2-aza-spiro[4.5]dec-7-yl]-amide] | 73 to 95
Cc1nccc(C(=O)N[C@@H]2CC(F)(F)C[C@]3(CCN(c4cc(F)cc(F)c4)C3=O)C2)n1 (relative stereo) [Example 105, trans-2-Methyl-pyrimidine-4-carboxylic acid [2-(3,5-difluoro-phenyl)-9,9-difluoro-1-oxo-2-aza-spiro[4.5]dec-7-yl]-amide] | 47 to 93
O=C(N[C@@H]1CC(F)(F)C[C@@]2(CCN(c3ccc(F)cc3)C2=O)C1)c1ccccn1 (relative stereo) [Example 106, cis-Pyridine-2-carboxylic acid [9,9-difluoro-2-(4-fluoro-phenyl)-1-oxo-2-aza-spiro[4.5]dec-7-yl]-amide] | 47 to 93
Cc1cccc(C(=O)N[C@@H]2CC(F)(F)C[C@@]3(CCN(c4cccc(F)c4)C3=O)C2)n1 (relative stereo) [Example 107, cis-6-Methyl-pyridine-2-carboxylic acid [9,9-difluoro-2-(3-fluoro-phenyl)-1-oxo-2-aza-spiro[4.5]dec-7-yl]-amide] | 47 to 93
Cc1cccc(C(=O)N[C@@H]2CC(F)(F)C[C@@]3(CCN(c4ccnc(C)n4)C3=O)C2)n1 (relative stereo) [Example 108, cis-6-Methyl-pyridine-2-carboxylic acid [9,9-difluoro-2-(2-methyl-pyrimidin-4-yl)-1-oxo-2-aza-spiro[4.5]dec-7-yl]-amide] | 47 to 93
O=C(N[C@@H]1CC(F)(F)C[C@@]2(CCN(c3ccc(F)cn3)C2=O)C1)c1ccccn1 (relative stereo) [Example 111, cis-Pyridine-2-carboxylic acid [9,9-difluoro-2-(5-fluoro-pyridin-2-yl)-1-oxo-2-aza-spiro[4.5]dec-7-yl]-amide] | 47 to 93
Cc1nccc(N2CC[C@]3(C[C@H](NC(=O)c4ccccn4)CC(F)(F)C3)C2=O)n1 (relative stereo) [Example 112, cis-Pyridine-2-carboxylic acid [9,9-difluoro-2-(2-methyl-pyrimidin-4-yl)-1-oxo-2-aza-spiro[4.5]dec-7-yl]-amide] | 47 to 93
Cc1nccc(C(=O)N[C@@H]2CC(=O)C[C@@]3(CCN(c4cc(F)cc(F)c4)C3=O)C2)n1 (relative stereo) [Example 115, cis-2-Methyl-pyrimidine-4-carboxylic acid [2-(3,5-difluoro-phenyl)-1,9-dioxo-2-aza-spiro[4.5]dec-7-yl]-amide] | 47 to 93
Cc1nccc(C(=O)N[C@@H]2C[C@H](O)C[C@@]3(CCN(c4cc(F)cc(F)c4)C3=O)C2)n1 (relative stereo) [Example 116, cis-2-Methyl-pyrimidine-4-carboxylic acid [2-(3,5-difluorphenyl)-9-hydroxy-1-oxo-2-aza-spiro[4.5]dec-7-yl]-amide] | 47 to 93
Cc1nccc(C(=O)N[C@@H]2C[C@@H](O)C[C@@]3(CCN(c4cc(F)cc(F)c4)C3=O)C2)n1 (relative stereo) [Example 117, trans-2-Methyl-pyrimidine-4-carboxylic acid [2-(3,5-difluorphenyl)-9-hydroxy-1-oxo-2-aza-spiro[4.5]dec-7-yl]-amide] | 47 to 93
Cc1nccc(C(=O)N[C@@H]2C[C@@H](F)C[C@@]3(CCN(c4cc(F)cc(F)c4)C3=O)C2)n1 (relative stereo) [Example 122, trans-2-Methyl-pyrimidine-4-carboxylic acid [2-(3,5-difluoro-phenyl)-9-fluoro-1-oxo-2-aza-spiro[4.5]dec-7-yl]-amide] | 47 to 93
O=C1C[C@@H](NC(=O)c2cccc(F)c2)C[C@]2(CCN(c3cccc(F)c3)C2=O)C1 (relative stereo) [Example 123, cis-3-Fluoro-N-[2-(3-fluoro-phenyl)-1,9-dioxo-2-aza-spiro[4.5]dec-7-yl]-benzamide] | 47 to 93
Cc1cccc(C(=O)N[C@@H]2CC(=O)C[C@@]3(CCN(c4cccc(F)c4)C3=O)C2)n1 (relative stereo) [Example 124, cis-6-Methyl-pyridine-2-carboxylic acid [2-(3-fluoro-phenyl)-1,9-dioxo-2-aza-spiro[4.5]dec-7-yl]-amide] | 47 to 93
O=C(N[C@@H]1C[C@@H](O)C[C@@]2(CCN(c3cccc(F)c3)C2=O)C1)c1cccc(F)c1 (relative stereo) [Example 125, trans-3-Fluoro-N-[2-(3-fluoro-phenyl)-9-hydroxy-1-oxo-2-aza-spiro[4.5]dec-7-yl]-benzamide] | 47 to 93

Continued, values first:

Emax [%] | Structure (SMILES)
73 to 95 | Cc1nccc(N2CC[C@]3(CCC[C@H](NC(=O)c4cc(F)cc(F)c4)C3)C2=O)n1 (relative stereo) [Example 85, cis-3,5-Difluoro-N-[2-(2-methyl-pyrimidin-4-yl)-1-oxo-2-aza-spiro [4.5]dec-7-yl]-benzamide]
73 to 95 | Cc1cncc(C(=O)N[C@H]2CCC[C@]3(CCN(c4cc(-c5ccc(F)cc5)ncn4)C3=O)C2)n1 (relative stereo) [Example 86, cis-6-Methyl-pyrazine-2-carboxylic acid {2-[6-(4-fluoro-phenyl)-pyrimidin-4-yl]-1-oxo-2-aza-spiro [4.5]dec-7-yl}-amide]
73 to 95 | Cc1cccc(C(=O)N[C@H]2CCC[C@]3(CCN(c4cc(-c5ccc(F)cc5)ncn4)C3=O)C2)n1 (relative stereo) [Example 87, cis-6-Methyl-pyridine-2-carboxylic acid {2-[6-(4-fluoro-phenyl)-pyrimidin-4-yl]-1-oxo-2-aza-spiro [4.5]dec-7-yl}-amide]
73 to 95 | Cc1nccc(N2CC[C@]3(CCC[C@H](NC(=O)c4ccc(F)cc4)C3)C2=O)n1 (relative stereo) [Example 89, cis-4-Fluoro-N-[2-(2-methyl-pyrimidin-4-yl)-1-oxo-2-aza-spiro [4.5]dec-7-yl]-benzamide]
73 to 95 | Cc1nccc(N2CC[C@]3(CCC[C@H](NC(=O)c4ccc(F)c(F)c4)C3)C2=O)n1 (relative stereo) [Example 90, cis-3,4-Difluoro-N-[2-(2-methyl-pyrimidin-4-yl)-1-oxo-2-aza-spiro [4.5]dec-7-yl]-benzamide]
73 to 95 | Cc1nccc(N2CC[C@]3(CCC[C@H](NC(=O)c4ccccc4F)C3)C2=O)n1 (relative stereo) [Example 91, cis-2-Fluoro-N-[2-(2-methyl-pyrimidin-4-yl)-1-oxo-2-aza-spiro [4.5]dec-7-yl]-benzamide]
73 to 95 | Cc1cc(C(=O)N[C@H]2CCC[C@]3(CCN(c4ccnc(C)n4)C3=O)C2)ccn1 (relative stereo) [Example 92, cis-2-Methyl-N-[2-(2-methyl-pyrimidin-4-yl)-1-oxo-2-aza-spiro [4.5]dec-7-yl]-isonicotinamide]
73 to 95 | Cc1nccc(N2CC[C@]3(CCC[C@H](NC(=O)c4cccc(C(F)(F)F)n4)C3)C2=O)n1 (relative stereo) [Example 96, cis-6-Trifluoromethyl-pyridine-2-carboxylic acid [2-(2-methyl-pyrimidin-4-yl)-1-oxo-2-aza-spiro [4.5]dec-7-yl]-amide]
